Measured values published in US7282347B2, “Method for extracting quantitative information relating to interactions between cellular components” (Fisher Bioimage APS, priority 2000, dated 2007).
Entries after “also recorded” stand apart in the source; their conditions may differ. Like-named read-outs stand apart in the source and are kept apart here. Each block holds one molecule with its values, some of them ahead of it.

Tests used:
PDE4A4 = PDE4A4 (Homo sapiens, UniProt P27815); assay: formation of dense aggregates (spots) of PDE4A4 in transfected CHO cells; details: read-out: EC50 for formation of dense PDE4A4 aggregates (spots) in the cytoplasm
Chain of PDE4A4 (P27815 whole entry): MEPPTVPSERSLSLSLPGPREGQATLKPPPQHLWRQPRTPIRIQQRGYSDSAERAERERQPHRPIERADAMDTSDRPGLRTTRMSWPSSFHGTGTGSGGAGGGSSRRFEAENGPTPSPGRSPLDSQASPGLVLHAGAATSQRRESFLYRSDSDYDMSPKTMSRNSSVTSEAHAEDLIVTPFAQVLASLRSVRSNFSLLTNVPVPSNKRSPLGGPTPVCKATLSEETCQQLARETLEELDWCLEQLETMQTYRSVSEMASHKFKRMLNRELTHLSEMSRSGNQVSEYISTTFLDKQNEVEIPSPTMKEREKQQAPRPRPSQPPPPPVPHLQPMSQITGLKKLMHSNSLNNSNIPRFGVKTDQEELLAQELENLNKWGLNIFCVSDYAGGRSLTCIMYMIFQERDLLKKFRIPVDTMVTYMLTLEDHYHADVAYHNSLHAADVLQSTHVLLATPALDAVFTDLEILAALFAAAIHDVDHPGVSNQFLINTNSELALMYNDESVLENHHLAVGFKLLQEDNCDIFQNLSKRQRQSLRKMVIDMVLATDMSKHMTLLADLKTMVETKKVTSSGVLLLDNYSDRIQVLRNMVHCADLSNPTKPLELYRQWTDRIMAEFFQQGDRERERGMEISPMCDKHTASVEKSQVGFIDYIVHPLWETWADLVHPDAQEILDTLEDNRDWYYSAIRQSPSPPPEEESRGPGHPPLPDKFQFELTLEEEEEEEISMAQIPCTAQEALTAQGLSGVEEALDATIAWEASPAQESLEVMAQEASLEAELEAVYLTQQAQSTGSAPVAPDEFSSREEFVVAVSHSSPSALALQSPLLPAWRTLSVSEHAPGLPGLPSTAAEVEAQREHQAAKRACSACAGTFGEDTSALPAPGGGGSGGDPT
Method: The amount of fluorescent spots and other accumulations of a transfected probe in a population of cells can be imaged and quantified in an automated fashion to yield a measure of mean number of spots per cell. For this purpose cells are cultured to near 80% to 90% confluence in coverglass chambers or plastic 96-well plates, given the relevant treatment and allowed to respond. At the end of the response period, cells are chemically fixed in 4% formaldehyde buffer (Lillies fixative buffer, pH7.4: Bie and Berntsen A/S, Denmark) for 30 minutes to 2 hours, and then washed three times in phosphate buffered saline (PBS, Life Technologies, Denmark). An alternative simultaneous fixation+permeabilisation method, useful to remove non-localised (i.e. mobile) GFP probe from the cytoplasm, involves a single fixation process incorporating 0.4% to 2% formaldehyde buffer (10% to 50% strength Lillies fixative) plus 0.2% to 1% Triton X-100. The actual concentrations used need to be optimised for the cell type being used; for CHO cells 2% formaldehyde+1% Triton X-100 gives excellent results. The combined fixative+detergent are applied to the cells for 10 to 20 minutes at room temperature. Cells are then washed three times with phosphate buffered saline. […] Fluorescence illumination comes from a 100 W HBO lamp. […]

PKAcat-GFP = assay: forskolin induced PKAcat-GFP translocation quantified by extraction procedure, FLIPR; assay type: cell-based; details: Homo sapiens
Method: Upon increase in cellular cAMP (e.g. by stimulation of adenylate cyclase activity by forskolin) PKAcat dissociates from its regulatory subunits and spots “dissolves” into the cytosol. The total GFP intensity measured after removing cytosolic PKAcat-GFP through the extraction procedure is indicative of the level of non-activated, non-dissociated PKAcat.
In this example the extraction procedure is used to quantify a forskolin dose response in a PKAcat-GFP assay.
Cells are treated with forskolin in various conc. for 15 min. (remove spots). Cells are extracted (Formalin 0.2%/Triton-x 0.2%). Signal is read in FLIPR.
Dose response on the effect of forskolin to stimulate PKA translocation.

[1] = tested on: CHO cells stably expressing HSPDE4A4B-GFP; assay: cellular cAMP content (kit RPA538) in CHO cells stably expressing HSPDE4A4B-GFP; assay type: cell-based, Chinese hamster; details: rolipram 0.03 μM to 3 μM, 16 to 18 hours
Method: (§1) After the incubation period, cAMP content is measured using a commercial kit from Amersham-Pharmacia Biotech, kit # RPA538, according to the manufacturers instructions.
(§2) The amount of cAMP/well was calculated using regression analysis from a cAMP standrad curve, as recommended by the manufacturers of the assay kit.
(§3) After the incubation period, cAMP content is measured using a commercial kit from Amersham-Pharnacia Biotech, kit # RPA538, according to the manufacturers instructions.
CHO cells stably expressing HSPDE4A4B-GFP (see Example 2), and untransfected CHO cells are seeded into individual wells of a 96-well microtiter plate at a density of 1.2×10^5 cells/well, and cultured for 16 to 18 hours in HAM F-12 medium with glutamax, 100 μg penicillin-streptomycin mixture ml^−1 and 10% FBS. […] After the treatment period, cAMP content is measured using a commercial kit from Amersham-Pharmacia Biotech, kit # RPA538, according to the manufacturers instructions.

untransfected CHO cells = assay: cellular cAMP content (kit RPA538) in untransfected CHO cells; assay type: cell-based, Chinese hamster
Method: as §1, §2, §3
CHO cells stably expressing HSPDE4A4B-GFP (see Example 2), and untransfected CHO cells are seeded into individual wells of a 96-well microtiter plate at a density of 1.2×10^5 cells/well, and cultured for 16 to 18 hours in HAM F-12 medium with glutamax, 100 μg penicillin-streptomycin mixture ml^−1 and 10% FBS. After 16 to 18 hours incubation, cells are treated for 60 minutes with various concentrations of forskolin. After the treatment period, cAMP content is measured using a commercial kit from Amersham-Pharmacia Biotech, kit # RPA538, according to the manufacturers instructions.

[2] = molecular target: T1, HSPDE4A4-SosA anchor probe and hGrb2-EGFP detectable probe (Homo sapiens, UniProt P27815+Q07890); assay: redistribution trap: CHO cells co-transfected with HSPDE4A4-SosA anchor probe and hGrb2-EGFP detectable probe; assay type: cell-based; details: 10 μM RP73401 for 75 minutes in presence of 10 micromolar rolipram
T1 construct: expressed in transfected cells; host or cells: CHO
Source text: Sos is a guanine nucleotide exchange factor responsible for activation Ras-like GTPases, Grb2 an adaptor component responsible for recuiting Sos to the activated receptor. In this example the anchor probe is based on HSPDE4A4. CHO cells are stably co-transfected with anchor probe HSPDE4A4-SosA and “detectable” probe hGrb2-EGFP as described in Example 2 and Example 3. The anchor probe is selected for with zeocin, and the detectable probe with neomycin (G418). […] The transfected cells are a mixed non-clonal population.
The transfected cells are a mixed non-clonal population.

[3] = molecular target: T2, Cys1 domain of PKCgamma (Cys1-EGFP) (Homo sapiens, UniProt P05129); assay: redistribution of Cys1-EGFP to the plasma membrane in CHO cells; assay type: cell-based; details: 100 nM PMA, 5 minutes
T2 construct: the 90 N-terminal amino acids of human PKCgamma (the Cys1 domain); expressed in transfected cells; host or cells: CHO
Method: Time-lapse images of CHO cells expressing Cys1-EGFP, the fusion of EGFP to the C-terminal of the cys1 domain from human protein kinase C isoform gamma, before (a) and after 5 minutes treatment with 100 nM PMA.

[4] = molecular target: T3, Cys1-hGrb2 anchor probe and EGFP-Sos-Cterm detectable probe (Homo sapiens, UniProt P62993); assay: redistribution trap: CHO cells expressing Cys1-hGrb2 anchor probe and EGFP-Sos-Cterm detectable probe; assay type: cell-based; details: control cells with EGFP-Sos-Cterm alone, PMA
T3 construct: the 90 N-terminal amino acids of human PKCgamma (the Cys1 domain); expressed in transfected cells; host or cells: CHO
Method: (§4) This example describes the creation of another cell line suitable for screening compounds against the interaction between Grb2 and the C-terminal sequence of Sos (amino acids 1067 to 1332 of Sos). This is the same interaction pair described in Example 6, except that the anchor probe is based upon the Cys1 domain of protein kinase C isoform gamma, and therefore locates in unstimulated cells throughout the cytoplasm and nucleus. When these cells are treated with 100 nM PMA the anchor probe redistributes to the plasma membrane, and if an interaction occurs between anchor and detectable probes, the GFP fluorescence will also be seen to redistribute to the plasma membrane. […] Treatment with PMA is used to confirm that an interaction between anchor and detectable probes occurs in this system, since redistribution of fluorescence to the plasma membrane can only occur if interaction of the two probes has first taken place. This can be checked in CHO cells transfected with EGFP-Sos-Cterm alone, where PMA has no effect on the distribution of fluorescence.
(§5) CHO cells are stably co-transfected with the anchor probe Cys1-hGrb2 and the GFP-labelled detectable probe EGFP-Sos-Cterm as described in Example 2 and Example 6. […] The majority of cells in before PMA treatment have a rather general cytoplasmic and nuclear distribution of fluorescence. […]

[5] = molecular target: T4, Cys1-hGrb2 anchor probe and EGFP-Sos-Cterm detectable probe (Homo sapiens, UniProt P05129+P62993); assay: as above; assay type: cell-based; details: 100 nM PMA, 5 minutes
T4 construct: the 90 N-terminal amino acids of human PKCgamma (the Cys1 domain); expressed in transfected cells; host or cells: CHO
Method: as §4, §5

EC50 (PDE4A4): 20 nM
Structure (SMILES): O=c1c2cccnc2n(-c2cccc([N+](=O)[O-])c2)c(=O)n1Cc1ccncc1 [RS25344]

EC50 (PKAcat-GFP; 0.25 h, forskolin 15 min, extraction Formalin 0.2%/Triton-x 0.2%, FLIPR, read-out: ED50 of forskolin dose response in PKAcat-GFP assay): ~3000 nM
EC50 (PKAcat-GFP; FIG. 18 dose response, read-out: calculated EC50 for forskolin to stimulate PKA translocation): 3280 nM
Structure (SMILES): C=C[C@@]1(C)CC(=O)[C@]2(O)[C@@]3(C)[C@@H](O)CCC(C)(C)[C@@H]3[C@H](O)[C@H](OC(C)=O)[C@@]2(C)O1 [forskolin]

Structure (SMILES): COc1ccc(C2CNC(=O)C2)cc1OC1CCCC1 (stereo not shown) [rolipram]
cellular cAMP concentration, rolipram treatment [1]: no appreciable increase
cellular cAMP, rolipram 10 μM (untransfected CHO cells; 10 μM rolipram, probably not significant): slight rise
cellular cAMP concentration, rolipram treatment (untransfected CHO cells; rolipram 0.03 μM to 3 μM, 16 to 18 hours): no appreciable increase

Structure (SMILES): COc1ccc(C(=O)Nc2c(Cl)cncc2Cl)cc1OC1CCCC1 [RP73401, Piclamilast]
effect on rolipram-induced GFP-bright spots [2]: spots disappear; also recorded: dissolves rolipram-induced spots

Structure (SMILES): CCCCCCCCCCCCCC(=O)O[C@@H]1[C@@H](C)[C@@]2(O)[C@@H](C=C(CO)C[C@]3(O)C(=O)C(C)=C[C@@H]23)[C@@H]2C(C)(C)[C@]12OC(C)=O [PMA, phorbol-12-myristate-13-acetate]
redistribution of Cys1-EGFP [3]: redistributes from the cytoplasm and nucleus to the plasma membrane
distribution of fluorescence in CHO cells transfected with EGFP-Sos-Cterm alone [4]: no effect
redistribution of EGFP-Sos-Cterm fluorescence [5]: measurable shift in fluorescence to the plasma membrane
